According to patent publication US20230172940A1, “METHODS OF EXTENDING LIFESPAN BY ADMINISTERING FERROPTOSIS INHIBITORS” (COLLABORATIVE MEDICINAL DEVELOPMENT, LLC, priority 2020, published 2023):

Experiments:
E. coli (strain OP50) = test: Disk diffusion test; type: cell-based, Escherichia coli
Source text: C. elegans are bacteriophores and the E. coli (OP50) monoxenic diet can colonize the pharynx and intestine, resulting in death. Consequently, antibiotics are known to extend C. elegans lifespan. In addition, iron chelating compounds, such as EDTA have been reported to have antibiotic properties.

C. elegans = test: Body size analysis; type: in vivo, Caenorhabditis elegans
Description: […] The treatment plates included NGA with 0.5% (v/v) DMSO (vehicle control, Ctl), 250 μM SIH, or 200 μM Lip-1 (as described above).
Cohorts of approximately 100 animals were transferred into a 1.5 ml centrifuge tube containing 400 μL S-basal. Following a brief centrifugation excess S-basal was removed leaving the animals suspended in 50 μL. Animals were euthanized and straightened by a 15 second exposure to 60° C. (using a heated water bath). Samples were then mounted between glass slides and a cover slip and immediately imaged. Micrographs were collected using a Leica M80 stereomicroscope and Leica DFC290 HD 3 MP) digital camera. Pixel sizes were defined using a calibrated 25 μm grid slide (Microbrightfield, Inc). Size and shape metrics were extracted from brightfield images were analyzed using the WormSizer plugin for ImageJ.
Data of estimated adult body length and volume were initially assessed for normality using a D'Agostino & Pearson test. Based on this analysis a nonparametric Kruskal-Wallis Analysis of Variance (ANOVA) was performed followed by a Dunn-Šidák test for multiple comparisons (as implemented by Prism v7.0a, GraphPad Software). There was a significant difference between body length (H(10)=432.6, p<0.0001) amongst the groups measured.

C. elegans strain TJ1060 = test: Parametric survival models (Weibull frailty), goodness of fit, combining replicates, meta-analysis; set-up: species or system Caenorhabditis elegans
Description: Parametric survival models with Weibull baseline hazards and Gamma frailty were fitted to replicate-specific data using the R package flexsurv. A likelihood ratio test was used to compare models that assume simple temporal rescaling to models that allow varying degrees of departure from temporal rescaling. The best model for each replicate was selected using a likelihood ratio test and the goodness of fit (GOF) of the best model is evaluated using a chi-square GOF test. To combine data across different replicates, we performed fixed-effect and random-effect meta-analyses for each parameter in the best model. Briefly, the fixed-effect meta-analysis estimates were derived using Inverse Variance Weighting (IVW) in which the estimates from each replicate were weighted by the inverse of their variance estimates. The meta-analysis estimates were then calculated simply as the weighted average of estimates from all replicates. The fixed-effect meta-analysis assumes that there is insignificant variation between the estimates of the same parameter across different replicates. The random-effect meta-analysis also derives the estimates by assigning weights to estimates from each replicate, but in this case the weights take into account the variation of estimates across replicates. […]

[1] = test system: Hydroxynonenal (4-HNE) protein adducts; test: Lipid peroxidation: 4-HNE protein adducts (immunoblot); type: in vivo, Caenorhabditis elegans; details: qualitative
Description: Analysis of Hydroxynonenal (4-HNE) protein adducts was also used as a proxy for lipid peroxidation. Duplicate samples of 50 and 200 worms were collected and washed twice in S-basal^o pelleted by centrifugation and the supernatant discarded. These samples (^˜30 μL) were frozen in liquid-N2 and stored at −80° C. until needed. To each sample an 10 μL 4× Bolt LDS sample buffer (Invitrogen) and 3 μL TCEP (Invitrogen) was added and the sample heated to 95° C. for 10 min. Lysates were loaded onto NuPAGE™ 4-12% Bis-Tris acrylamide gels (1.0 mm^o 10-well^o Invitrogen)^o electrophoresed with MES running buffer and then transferred onto 0.45 μm PVDF membrane by electroblot using a Mini Blot module (Invitrogen). 4-HNE protein adducts were detected by an anti 4-HNE protein adduct antibody (1:2000^o AB5605^o Millipore) in Tris-buffer saline with 5% skim milk^o and ECL (GE Healthcare). The membranes were stripped using a 1× ReBlot Strong Antibody Stripping Solution (Merck) for 15 min^o reprobed for tubulin using an anti-Tubulin antibody (1:10^o000^oT6074^o Sigma-Aldrich).

O=C(N/N=C/c1ccccc1O)c1ccncc1 [SIH, Salicylaldehyde isonicotinoyl hydrazone]
inhibition of E. coli (strain OP50) growth (E. coli (strain OP50)): no evidence for inhibition
body volume (C. elegans; Day 4): greater volume than both control and Lip-1 treated worms
body length, mean±SD (C. elegans; Day 8, control 1440±123 μm, p<0.001): 1696±64 μm
body length versus similarly aged controls (C. elegans; after 4 days and 8 days of intervention): significantly longer
body volume over time (C. elegans; in vivo): increase in body volume between Days 1 and 4, but not thereafter
risk of death (hazard) in early adulthood (C. elegans strain TJ1060; compared to control populations, rose precipitously in late life): greatly reduced
increase in 4-HNE protein adducts with age [1]: suppressed

Clc1cccc(CNC2=Nc3ccccc3NC23CCNCC3)c1 [Lip-1, N-[(3-chlorophenyl)methyl]-spiro[piperidine-4,2′(1′H)-quinoxalin]-3′-amine]
inhibition of E. coli (strain OP50) growth (E. coli (strain OP50)): no evidence for inhibition
length or volume (C. elegans; in vivo): no effect on length or volume
rate of mortality in the post-reproductive period (late-life) (C. elegans strain TJ1060): markedly reduced
increase in 4-HNE protein adducts with age [1]: suppressed
